The values below come from US7307083B2, “Tetrahydro-acridine and dithiolane derivatives” (priority 2005, dated 2007).

Experiment [1] addresses human recombinant acetylcholinesterase (AChE or HuAChE) (Homo sapiens, UniProt P22303). Briefly: biochemical. It counts as biochemical.
The target of experiment [2] is butyrylcholinesterase (BChE) from human serum (Homo sapiens, UniProt P06276). Briefly: biochemical. Format: biochemical.
The target in experiment [3] is AChE-induced Aβ40 aggregation (Homo sapiens, UniProt P22303). Briefly: biochemical. Conditions: read-out: % of inhibition ± SEM of AChE-induced Aβ40 aggregation.
Sequence of AChE-induced Aβ40 aggregation (P22303 32-614): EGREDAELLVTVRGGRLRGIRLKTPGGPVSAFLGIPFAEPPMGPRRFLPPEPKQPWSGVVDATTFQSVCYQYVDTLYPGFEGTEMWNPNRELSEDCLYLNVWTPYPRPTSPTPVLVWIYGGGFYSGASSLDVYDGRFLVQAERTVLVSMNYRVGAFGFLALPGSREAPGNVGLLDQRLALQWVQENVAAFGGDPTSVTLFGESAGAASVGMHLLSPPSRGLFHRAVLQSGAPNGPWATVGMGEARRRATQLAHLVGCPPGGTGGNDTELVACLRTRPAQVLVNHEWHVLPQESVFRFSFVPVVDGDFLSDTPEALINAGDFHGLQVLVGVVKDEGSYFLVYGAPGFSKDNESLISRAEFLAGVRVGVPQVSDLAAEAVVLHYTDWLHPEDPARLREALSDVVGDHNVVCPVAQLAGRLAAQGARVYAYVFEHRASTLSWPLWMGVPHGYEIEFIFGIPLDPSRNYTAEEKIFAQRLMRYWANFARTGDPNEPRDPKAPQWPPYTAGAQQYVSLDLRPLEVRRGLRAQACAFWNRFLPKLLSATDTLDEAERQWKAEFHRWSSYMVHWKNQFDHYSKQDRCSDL
Experiment [4] deals with anti-NGF mice (AD11). In words: Cholinergic deficit of anti-NGF mice: ChAT immunohistochemistry, cholinergic neurones in the basal forebrain. Conditions: i.p., 15 days, doses of Table 6.
Procedure: Immunohistochemistry was carried out to show the number of cholinergic neurones in the basal forebrain. For this purpose, sections were incubated with the monoclonal antibody anticholine acetyltransferase (1:500, Chemicon International Inc., Temecula, Calif.).
Setting [5] is: human recombinant AChE, mean of two independent measurements, each in duplicate, read-out: IC50 AChE.
Setting [6] is: BChE from human serum, mean of two independent measurements, each in duplicate, read-out: IC50 BChE.

Where two headings read alike, the source gives them in different places.

Sequence of human recombinant acetylcholinesterase (AChE or HuAChE) (P22303 32-614): as above
Sequence of butyrylcholinesterase (BChE) from human serum (P06276 29-602): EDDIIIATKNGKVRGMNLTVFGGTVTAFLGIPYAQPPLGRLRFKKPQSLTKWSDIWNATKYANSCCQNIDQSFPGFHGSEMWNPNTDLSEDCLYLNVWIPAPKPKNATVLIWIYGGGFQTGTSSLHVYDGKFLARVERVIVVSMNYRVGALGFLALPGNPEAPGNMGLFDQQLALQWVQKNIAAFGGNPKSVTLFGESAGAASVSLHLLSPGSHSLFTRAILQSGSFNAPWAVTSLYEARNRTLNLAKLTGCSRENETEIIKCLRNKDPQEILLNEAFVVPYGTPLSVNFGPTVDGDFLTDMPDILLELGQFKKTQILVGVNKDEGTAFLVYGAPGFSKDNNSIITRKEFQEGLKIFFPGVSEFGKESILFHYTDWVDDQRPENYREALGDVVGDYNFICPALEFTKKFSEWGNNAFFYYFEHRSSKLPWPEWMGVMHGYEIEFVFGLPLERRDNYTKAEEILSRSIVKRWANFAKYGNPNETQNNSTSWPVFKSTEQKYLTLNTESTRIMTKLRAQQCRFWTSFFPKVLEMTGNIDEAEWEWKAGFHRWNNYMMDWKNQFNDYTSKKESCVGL

For `O=C(CCCCC1CCSS1)NCCCCCNc1c2c(nc3ccccc13)CCCC2` (centres unmarked) [Compound 4, 5-[1,2]dithiolan-3-yl-pentanoic acid [5-(1,2,3,4-tetrahydro-acridin-9-ylamino)-pentyl]-amide], the figures for the IC50 in experiment [1] (setting [5]) and in experiment [2] (read-out: IC50 BChE) were 0.0384 µM and 0.00148 µM, respectively.
In the case of `O=C(CCCCC1CCSS1)NCCNc1c2c(nc3ccccc13)CCCC2` (centres unmarked) [Compound 1, 5-[1,2]dithiolan-3-yl-pentanoic acid [2-(1,2,3,4-tetrahydro-acridin-9-ylamino)-ethyl]amide], the IC50 (in general, the concentration at which inhibition is half-maximal) came out at 0.097 µM in experiment [1] (setting [5]) and 0.0475 µM in experiment [2] (setting [6]).
With `COc1cc2nc(Cl)nc(NCCCNC(=O)CCCCC3CCSS3)c2cc1OC` (centres unmarked) [Compound 23, 5-[1,2]dithiolan-3-yl-pentanoic acid [3-(2-chloro-6,7-dimethoxy-chinazoline-4-ylamino)-propyl]-amide], the IC50 in experiment [1] was 192 µM. In addition, the inhibition – broadly, the percentage by which the read-out fell short of the control – at 100 µM in experiment [3] turned out to be 32.1 ± 3.9%.
Regarding `O=C(CCCCC1CCSS1)NCCCCCCCNc1c2c(nc3ccccc13)CCCC2` (centres unmarked) [Compound 6, 5-[1,2]dithiolan-3-yl-pentanoic acid [7-(1,2,3,4-tetrahydro-acridin-9-ylamino)-heptyll]-amide], the IC50 in experiment [2] (setting [6]) came to 0.00858 µM.
Consider `COc1cccc(C(C)N(C)CCCNC(=O)CCCCC2CCSS2)c1` (centres unmarked) [Compound 20, 5-[1,2]dithiolan-3-yl-pentanoic acid (3-{[1-(3-methoxy-phenyl)-ethyl]-methyl-amino}-propyl)-amide], for which the figures for the IC50 in experiment [1] (setting [5]) and in experiment [2] (setting [6]) were 74.1 µM and 0.398 µM, respectively. The inhibition at 100 µM in experiment [3] worked out at 15.6 ± 7.8%. Moreover, in experiment [4], the “recovery of the cholinergic deficit (number of cholinergic neurones in the basal forebrain)” value (“recovery of the cholinergic deficit” below) is recorded as “did not allow the complete recovery of the cholinergic deficit”.
As to `O=C(CCCCC1CCSS1)NCCCNc1c2c(nc3ccccc13)CCCC2` (centres unmarked) [Compound 2, 5-[1,2]dithiolan-3-yl-pentanoic acid [3-(1,2,3,4-tetrahydro-acridin-9-ylamino)propyl]amide], the IC50 in experiment [1] (setting [5]) was found to be 0.00696 µM; in experiment [2] (setting [6]), 0.012 µM.
The corresponding values for `O=C(CCCCC1CCSS1)NCCCCCCNc1c2c(nc3ccccc13)CCCC2` (centres unmarked) [Compound 5, 5-[1,2]dithiolan-3-yl-pentanoic acid [6-(1,2,3,4-tetrahydro-acridin-9-ylamino)-hexyl]-amide] are 0.0301 µM and 0.00324 µM.
Turning to `CC(c1cccc(OCCCNC(=O)CCCCC2CCSS2)c1)N(C)C` (centres unmarked) [Compound 19, 5-[1,2]dithiolan-3-yl-pentanoic acid {3-[3-(1-dimethylamino-ethyl)-phenoxy]-propyl}-amide], the results for the IC50 in experiment [1] (setting [5]) and in experiment [2] were 25.2 µM and 82.4 µM, respectively. Besides, the inhibition at 100 µM in experiment [3] was determined as 9 ± 6.6%. Besides, in experiment [4], the “recovery of the cholinergic deficit” value is recorded as “did not allow the complete recovery of the cholinergic deficit”.
`Nc1c2c(nc3cc(Cl)ccc13)CC(CNC(=O)CCCCC1CCSS1)CC2` (centres unmarked) [Compound 8, 5-[1,2]dithiolan-3-yl-pentanoic acid (9-Amino-6-chloro-1,2,3,4-tetrahydro-acridin-3-ylmethyl)-amide]: the IC50 in experiment [1] (setting [5]) worked out at 0.232 µM.
Regarding `O=C(CCCCc1cccs1)NCCCNc1c2c(nc3cc(Cl)ccc13)CCCC2` [Compound 21, 5-thiofen-2-yl-pentanoic acid [3-(6-chloro-1,2,3,4-tetrahydro-acridin-9-ylamino)-propyl]-amide], the figures for the IC50 in experiment [1] and in experiment [2] (setting [6]) were 0.00266 µM and 0.0306 µM, respectively. For the same compound, the inhibition at 100 µM in experiment [3] came out at 24.1 ± 5.7%.
Take `CCN(CCCCCCNC(=O)CCCCC1CCSS1)Cc1ccccc1OC` (centres unmarked) [Compound 18, 5-[1,2]dithiolan-3-yl-pentanoic acid {6-[Ethyl-(2-methoxy-benzyl)-amino]-hexyl}-amide]: the half-inhibitory concentration (IC50) in experiment [1] (setting [5]) was determined as 0.256 µM; in experiment [2] (setting [6]) it was 2.49 µM. The inhibition at 100 µM in experiment [3] came to 16.8 ± 2.2%. Moreover, the “recovery of the cholinergic deficit” value in experiment [4] was “significant recovery”.
Consider `O=C(CCCCC1CCSS1)NCCCCNc1c2c(nc3ccccc13)CCCC2` (centres unmarked) [Compound 3, 5-[1,2]dithiolan-3-yl-pentanoic acid [4-(1,2,3,4-tetrahydro-acridin-9-ylamino)-butyl]amide], for which the IC50 in experiment [1] (setting [5]) worked out at 0.0352 µM; in experiment [2] (read-out: IC50 BChE) it was 0.00504 µM.
